In series [1] the test system is T. rubrum. Kind of series: Antifungal activity of terbinafine loaded nails, agar diffusion assay. Format: cell-based. On the procedure: The nail plates loaded with the formulation containing 4% terbinafine HCl, 21% ethanol (95%), 5% Tween-80, 40% glycerin, 0.3% HEC, 0.2% benzoic acid, 0.01% BHT, and 0.01% disodium EDTA (Formulation TPI-DF-507), by passive diffusion (15 or 60 min) or iontophoresis (Coulombic doses of 0.75, 3, 6, and 12 mA min corresponding to 0.25 mA/cm^2 for 15 min, 0.25 mA/cm^2 for 60 min, 0.5 mA/cm^2 for 60 min, and 1 mA/cm^2 for 60 min, respectively), were tested for antifungal activity. The inoculum, T. rubrum, (ATCC10218) was prepared in sterile saline from 7-10 days old cultures on PDA slants at 30° C. Terbinafine HCl loaded nail pieces (2˜3 mm squares) were placed on the Sabouraud Dextrose Agar plates (Oxoid, Napean, Ontario, Canada) inoculated with T. rubrum. The diameter (mm) of the zones of inhibition were measured using a dial caliper after 4 days of incubation at 30° C. and were compared with the standards. The zone of inhibition for the standards (known drug concentrations: 0.1, 0.2, 0.4, 0.5, 0.6, 0.8, 1.0. 2.0 and 3.0 μg of terbinafine HCl) were determined similarly by loading the drug on 6 mm paper blank disks (Becton Dickinson, Sparks, Md.). Subsequently, the terbinafine HCl standard curve generated was used to calculate the drug dosage out of the nail. […] Based on the passaging study, duration of release of active terbinafine HCl was determined.

The format of series [2] is in vitro ADME. The settings on record: 4 %, pH 3. The procedure: Nails soaked in normal saline for one hour were mounted on a nail adapter and sandwiched between the two chambers of the FDC. […] Anodal iontophoresis was carried out at 0.5 mA/cm^2 for 1 hr using a custom made constant DC power supply. For comparison, passive delivery of the same formulation was performed for 1 hr. For drug release studies, nails loaded with drug were washed to remove the surface drug and were mounted on FDCs. The receiver compartment was filled with pH 3 water. The donor chamber was empty but was covered with parafilm. The receiver compartment medium was sampled daily and the amount of drug released from the drug loaded nails was measured until the cumulative release attained a plateau. Drug delivered into the nail via iontophoresis released terbinafine HCl in a sustained release fashion over approximately 3 weeks at levels far greater than passively loaded nails which reached a plateau only after a few days (FIG. 11). The amount of drug released from iontophoretically loaded nails represented approximately 47% of the initial drug loaded. Undelivered drug was confined to the upper layers of the nail and was hypothesized to be either entrapped or keratin bound. […] Actual release may be slower in vivo since the nail is not in contact with a fluid reservoir with enhanced drug solubility and infinite sink conditions.

Series [3] can be described thus: Delivery from nail-only and nail and skin applicators, nail on agarose model. The series is classed as in vitro ADME. The conditions noted are these: for nail loading range: Coulombic dose range 2-60 mA*min. The text has this: In the nail and skin applicator, the drug was delivered to both the nail and the skin (not shown). In the nail and skin applicator, the polyurethane foam and the active electrode (Ag-C) extended past the toe nail and onto agarose to mimic skin delivery. The agarose was covered with fluorinated ethylene propylene (FEP) membrane with uniform 0.5 mm holes distributed 5 mm apart to mimic the semi-restrictive property of the skin. […] The applicator extensions were adhered down to the base of the glass plate where the agarose was placed. The saline presoaked (1 hr) toe nail was placed on the curved agarose gel (1% w/v) with a counter electrode on the bottom of the agarose (standard EKG AgCl electrode with hydrogel, […]). […] Passive delivery was also run for 1 hr without current. […] The amount of drug permeated through the nail and into the agarose was determined by extracting terbinafine using 0.1M HCl and analyzing the samples by HPLC. Additional terbinafine HCl delivery testing using both types of applicators at different Coulombic doses were performed on the nail on agarose model. […] These additional doses, along with the higher 60 mA*min dose, were plotted as terbinafine loading (mg/g) with respect to Coulombic dose (FIG. 9F).

Series [4] deals with T. rubrum. The conditions noted are these: quoted in the T. rubrum agar study, organism not given; cited from earlier work.
Series [5] can be described thus: Permeation through and loading in human nail, Franz diffusion cell. The series is classed as in vitro ADME. On the procedure:
Permeation experiments were conducted using human nails to further validate iontophoretic delivery. In these experiments intact full thickness whole cadaver finger nail plates (˜0.5-0.7 mm thickness) were trimmed to appropriate disks and used. Prehydrated (in saline for 60 min) nail disks were sandwiched between the donor and receptor compartments of Franz diffusion cell (FDC) using a nail adaptor to conform to the curvature of the nail. Terbinafine hydrochloride (10 mg/mL) in water and Tween80 was used in the donor compartment, and acidified water used in the receptor. Current density of 0.5 mA/cm^2 was applied for 1 hr after which the receptor levels were measured for permeation of terbinafine hydrochloride through the nail using similar methods as described in Example 3B. Additionally, nail disks were analyzed (after 1 hr of iontophoresis or passive delivery) for drug in the nail using similar extraction methods as described as follows. […]
Permeation experiments were conducted using human nails as described in Example 4 but the effect of current duration was investigated. Current density of 0.5 mA/cm^2 was applied for either 15, 30, 45, or 60 minutes and the receptor levels analyzed for amount of terbinafine hydrochloride that permeated through the nail (μg/cm^2) immediately afterwards and compared to passively delivered nails.

Where a name gives a salt, the structure may show the parent alone.

The text below walks through data of US20080261986A1, “PHARMACEUTICAL FORMULATIONS FOR IONTOPHORETIC DELIVERY OF AN ANTI-FUNGAL DRUG” (priority 2007, published 2008).

By MIC is commonly meant the lowest concentration that inhibits growth of the organism.

Consider `CN(C/C=C/C#CC(C)(C)C)Cc1cccc2ccccc12` [terbinafine HCl, (E)-N-(6,6-dimethyl-2-hepten-4-ynyl)-N-methyl-1-naphthylmethamine hydrochloride], for which the “zones of inhibition, iontophoresis loaded nails versus passive delivery controls” value in the series on T. rubrum [1] (Formulation TPI-DF-507, 4 days at 30° C.) is “Significantly larger zones of inhibition”. For the same compound, in the series with T. rubrum [1] (serial passaging to freshly inoculated plates, 0.5 mA/cm^2 for 60 min), the “Duration of terbinafine HCl release from nail samples” value is recorded as “at least 36 days”. For the same compound, in series [2], the “amount of drug released as share of the initial drug loaded” value is recorded as “approximately 47%” and the “duration of sustained release from iontophoretically loaded nails” value is on record as “approximately 3 weeks”. Also, in series [3] (1 h, 4 %), the “share of the permeated drug that passed through the nail” value is recorded as 8% and the “share of the total permeated drug which passed through areas surrounding the nail” value is “Approximately 92%”. In addition, the nail loading range in series [3] (nail and skin applicator) lay within 20 to 90 µg/g. In series [3] (nail only applicator), this compound showed a nail loading range of 124 to 588 µg/g. Besides, in the series on T. rubrum [4], the MIC was 4 ng/mL. Moreover, the “permeation through the nail and loading in the nail, iontophoresis versus passive” value in series [5] (10 mg/mL in water and Tween80, 0.5 mA/cm^2 for 1 hr) is “increases permeation through the nail and loading in the nail compared to passive delivery”. In series [5] (0.5 mA/cm^2 for 15, 30, 45, or 60 minutes), the “iontophoretic permeation through the nail versus passive” value is recorded as “greater than passively delivered drug for all current durations tested”.
